# Data reported in patent US7435433B2, “Process for the isolation of oleane compounds isolated from the bark of arjun tree terminalia arjuna (Roxb.)” (Council of Scientific & Industrial Research, priority 2005, dated 2008).
# How the values were obtained:
# [1] = test system: MCF-7 (breast cancer) cells; test: In-vitro anticancer MTT assay, MCF-7; assay type: cell-based, human; conditions: 6 h exposure, then 48 h; for IC90: Homo sapiens, MCF7, 90% inhibition of cell growth vs untreated control, read-out: Inhibitory Concentration (IC90) MCF-7
# Description: (§1) The following six human cancer cell lines were procured from the Cell Repository of the National Center for Cell Sciences (NCCS) at Pune. Their corresponding ATCC No. and the organ from which they were isolated are also mentioned in the table described below:
# (§2) Cytotoxicity testing in vitro was done by the method of (Woerdenbag et al., 1993; J. Nat. Prod. 56 (6): 849-856). 2×10^3 cells/well were incubated in the 5% CO2 incubator for 24 h to enable them to adhere properly to the 96 well polystyrene microplate (Grenier, Germany). Test compounds dissolved in 100% DMSO in at least five doses were added and left for 6 h after which the compound plus media was replaced with fresh media and the cells were incubated for another 48 h in the CO2 incubator at 37° C.
# (§3) Then, 10 μl MTT [3-(4,5-dimethylthiazol-2-yl)-2,5-diphenyltetrazolium bromide; Sigma M 2128] was added, and plates were incubated at 37° C. for 4 h. 100 μl dimethyl sulfoxide (DMSO, Merck, Germany) were added to all wells and mixed thoroughly to dissolve the dark blue crystals. After a few minutes at room temperature to ensure that all crystals were dissolved, the plates were read on a SpectraMax 190 Microplate Elisa reader (Molecular Devices Inc., USA), at 570 nm. Plates were normally read within 1 h of adding the DMSO. The experiment was done in triplicate and the inhibitory concentration (IC) values were calculated as follows: % inhibition=[1-OD (570 nm) of sample well/OD (570 nm) of control well]×100. IC90 is the concentration μg/ml required for 90% inhibition of cell growth as compared to that of untreated control. […] It was also found to be active against breast adenocarcinoma, liver and ovarian cancer cell lines at 20-60 μg/ml.
# (§4) IC90: Concentration required to inhibit 90% of cell growth as compared to that of control.
# [2] = test system: breast adenocarcinoma, liver and ovarian cancer cell lines; test: In-vitro anticancer MTT assay, summary over three cell lines; assay type: cell-based; conditions: Homo sapiens, range over three cell lines, read-out: active concentration (IC90) against breast adenocarcinoma, liver and ovarian cancer cell lines
# Description: as §1, §2
# (§5) Then, 10 μl MTT [3-(4,5-dimethylthiazol-2-yl)-2,5-diphenyltetrazolium bromide; Sigma M 2128] was added, and plates were incubated at 37° C. for 4 h. […] After a few minutes at room temperature to ensure that all crystals were dissolved, the plates were read on a SpectraMax 190 Microplate Elisa reader (Molecular Devices Inc., USA), at 570 nm. Plates were normally read within 1 h of adding the DMSO. The experiment was done in triplicate and the inhibitory concentration (IC) values were calculated as follows: % inhibition=[1-OD (570 nm) of sample well/OD (570 nm) of control well]×100. […]
# [3] = test system: PA-1 (ovary cancer) cells; test: In-vitro anticancer MTT assay, PA-1; assay type: cell-based, human; conditions: 90% inhibition of cell growth vs untreated control, 6 h exposure, then 48 h
# Description: as §1, §2, §3, §4
# [4] = test system: Caco-2 (colon adenocarcinoma) cells; test: In-vitro anticancer MTT assay, Caco-2; assay type: cell-based, human; conditions: for IC90: Homo sapiens, Caco-2, read-out: Inhibitory Concentration (IC90) Caco-2; for Inhibitory Concentration (IC90) Caco-2: MTT assay, 90% inhibition of cell growth vs untreated control, 6 h exposure, then 48 h
# Description: as §1, §2, §3, §4
# [5] = test system: WRL-68 (liver cancer) cells; test: In-vitro anticancer MTT assay, WRL-68; assay type: cell-based; conditions: Homo sapiens, WRL68, 90% inhibition of cell growth vs untreated control, 6 h exposure, then 48 h, read-out: Inhibitory Concentration (IC90) WRL-68
# Description: as §1, §2, §5
# [6] = test system: BT-20 human breast carcinoma cells; conditions: cited from earlier work
# [7] = test system: TA98 and TA100 strains of salmonella typhimurium; conditions: cited from earlier work
# [8] = test system: Neisseria gonorrhoeae; conditions: cited from earlier work
compound,measurement,setting,value
"CC1(C)CCC2(C(=O)O)CCC3(C)C(=CCC4C5(C)CC(O)C(O)C(C)(C)C5CCC43C)C2C1O (racemic) [Arjunic acid, 2±,3^2,19±-tri-hydroxy-olea-12-en-28-oic acid]",IC90,[1],50 µg/mL
same,IC90,[2],20 to 60 µg/mL
same,IC90,"[3]; Homo sapiens, read-out: Inhibitory Concentration (IC90) PA-1",60 µg/mL
same,IC90,[4],4.5 µg/mL
same,IC90,[5],20 µg/mL
"CC1(C)CCC2(C(=O)OC3OC(CO)C(O)C(O)C3O)CCC3(C)C(=CCC4C5(C)CC(O)C(O)C(C)(C)C5CCC43C)C2C1O (stereo not drawn) [Arjunetin, arjunetin]",IC90,[1],50 µg/mL
same,IC90,[4],10 µg/mL
same,IC90,[5],20 µg/mL
"CC1(C)CC[C@]2(C(=O)O[C@@H]3O[C@H](CO)[C@@H](O)[C@H](O)[C@H]3O)CC[C@]3(C)C(=CC[C@@H]4[C@@]5(C)C[C@@H](O)[C@H](O)[C@@](C)(CO)[C@@H]5CC[C@]43C)[C@@H]2[C@@H]1O [Arjunglucoside-I, arjunglucoside-I]",Inhibitory Concentration (IC90) PA-1,[3],>50 µg/mL
same,Inhibitory Concentration (IC90) Caco-2,[4],>50 µg/mL
O=C(O[C@H]1[C@@H]2OC(=O)c3cc(O)c(O)c(O)c3-c3c(O)c(O)c4oc(=O)c5c(c(O)c(O)c6oc(=O)c3c4c65)-c3c(cc(O)c(O)c3O)C(=O)OC[C@H]2OC(O)[C@@H]1O)c1cc(O)c(O)c(O)c1 (stereo partly drawn) [Arjunin],IC50,[6],6500 µg/mL
same,cytotoxic activity,[6],moderate cytotoxic activity
O=c1oc2c(O)c(O)cc3c(=O)oc4c(O)c(O)cc1c4c23 [Ellagic acid],antimutagenic effect against 59-dependent 2AF,[7],quit effective
same,antimutagenic effect against NPD,[7],moderate effect
O=c1cc(-c2ccc(O)c(O)c2)oc2cc(O)cc(O)c12 [Luteolin],activity against pathogenic bacteria,[8],specific activity
arjungenin,Inhibitory Concentration (IC90) MCF-7,[1]; 90% inhibition of cell growth vs untreated control,>50 µg/mL
same,Inhibitory Concentration (IC90) PA-1,[3],60 µg/mL
same,Inhibitory Concentration (IC90) Caco-2,[4],50 µg/mL
